Test systems include SNB-78 CNS; DLD-1 colon; HOP-18 NSCLC; M19-MEL melanoma; DMS 114 small cell lung; RXF-631 renal.
Experiment in all cases: inhibition of tumour cell growth, NCI panel, 48 h

Molecules are shown by their SMILES.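 Exposure lasted 48 hours, with cells grown in 96-well plates and compounds tested at five concentrations. Definition used: TGI = concentration required for complete inhibition of growth.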

On to `CC1(c2ccc[n+](Cc3ccccc3)c2)OCCO1`, for which the TGI in the experiment on SNB-78 CNS, in the experiment on DLD-1 colon, in the experiment with HOP-18 NSCLC and in the experiment with M19-MEL melanoma was over 100 µM throughout.
`COc1cc(C(C)c2cc3c(cc2OCCO)OCO3)cc(OC)c1OC` (stereo not drawn): the TGI in the experiment on SNB-78 CNS was over 100 µM; in the experiment on DLD-1 colon, over 100 µM; in the experiment on DMS 114 small cell lung, 3.77 µM; in the experiment on HOP-18 NSCLC it was over 100 µM; in the experiment on M19-MEL melanoma, over 100 µM.
With `COc1cc2c(cc1OC)C(Cl)C(c1ccc(Cl)c(Cl)c1)=C2Cl` (stereo not drawn), the TGI in the experiment with SNB-78 CNS is 33.7 µM; with DMS 114 small cell lung, 15.9 µM; in the experiment on HOP-18 NSCLC, 37 µM; in the experiment with M19-MEL melanoma, 32.2 µM.
On to `CCOC(=O)Cc1cc(OC)c(OC)cc1/C(Cl)=C(\C=O)c1ccc(OC)c(OC)c1`, for which the TGI with RXF-631 renal came out at 49 µM; in the experiment with SNB-78 CNS, 81.1 µM; with DLD-1 colon, 48.8 µM; in the experiment on DMS 114 small cell lung, 48.8 µM; with HOP-18 NSCLC, 75.4 µM; in the experiment on M19-MEL melanoma, 55.6 µM.
`COc1ccc(C(=O)Cc2ccc(Br)cc2)cc1OC`: the TGI with RXF-631 renal, in the experiment with SNB-78 CNS, in the experiment on DLD-1 colon, in the experiment with DMS 114 small cell lung, with HOP-18 NSCLC and in the experiment with M19-MEL melanoma was over 100 µM in each case.
Regarding `COc1cc2cc[n+]3c(C)c4cc(OC)c(OC)cc4c([O-])c3c2cc1OC`, the TGI in the experiment with SNB-78 CNS is over 100 µM; in the experiment on DLD-1 colon it was over 100 µM; with DMS 114 small cell lung, 62.1 µM; in the experiment with M19-MEL melanoma, over 100 µM.
On to `COc1ccc(C2N(NC(=O)c3ccncc3)C(=O)CS2(=O)=O)cc1F` (stereo not drawn), for which the TGI with RXF-631 renal, with SNB-78 CNS, with DLD-1 colon, in the experiment on DMS 114 small cell lung and in the experiment with HOP-18 NSCLC was over 100 µM each time.
As to `O=C1C(=O)c2ccccc2C(O)=C1CCCc1ccc(Oc2ccccc2)cc1`, the TGI is 97.3 µM in the experiment on SNB-78 CNS, over 100 µM in the experiment on DLD-1 colon, 23.5 µM in the experiment with DMS 114 small cell lung and 37.9 µM in the experiment with M19-MEL melanoma.

Values taken from PubChem BioAssay (NCI).
